# Measurements published in the supplement of paper PMC10307832.
# How the values were obtained:
# Assay in all cases: relative viability (nuclei count vs DMSO), 5 days (fraction); higher = more cells survive
# [1] = compound: COc1cc2nc(N3CCCN(C)CC3)nc(NC3CCN(Cc4ccccc4)CC3)c2cc1OC + COc1cccc2cc(-c3nc([C@H]4CC[C@H](C(=O)O)CC4)n4ncnc(N)c34)[nH]c12 [OSI-027] (partner 0.5 µM)
# Outline: (§1)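 Values are medians from duplicate plates. Each reflects relative viability, defined as the nuclei count of treated wells over that of vehicle wells. Lung cancer cell lines in 1536-well plates were pin-tool dosed one day after seeding with one drug alone or with a fixed anchor-drug dose plus five library-drug doses (not always all listed) in √10 steps, then fixed, stained and imaged at 4× after 5 days.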
# [2] = compound: COc1cc2nc(N3CCCN(C)CC3)nc(NC3CCN(Cc4ccccc4)CC3)c2cc1OC + C[C@]1(O)C[C@@H](c2nc(-c3ccc4ccc(-c5ccccc5)nc4c3)c3c(N)nccn32)C1 [Linsitinib] (partner 1 µM)
# Outline: as §1
# [3] = compound: COc1cc2nc(N3CCCN(C)CC3)nc(NC3CCN(Cc4ccccc4)CC3)c2cc1OC + N=C(N)NC(=N)NCCc1ccccc1 [Phenformin] (partner 250 µM)
# Outline: as §1
# AZD6482 + Luminespib = compound: Cc1cc([C@@H](C)Nc2ccccc2C(=O)O)c2nc(N3CCOCC3)cc(=O)n2c1 [AZD6482] + CCNC(=O)c1noc(-c2cc(C(C)C)c(O)cc2O)c1-c1ccc(CN2CCOCC2)cc1 [Luminespib] (partner 0.01 µM)
# Outline: as §1
Cell Line,relative viability ([1]; first compound 0.2 µM),relative viability ([1]; first compound 0.6325 µM),relative viability ([1]; first compound 2 µM),relative viability ([1]; first compound 6.325 µM),relative viability ([2]; first compound 0.2 µM),relative viability ([2]; first compound 0.6325 µM),relative viability ([2]; first compound 2 µM),relative viability ([2]; first compound 6.325 µM),relative viability ([3]; first compound 0.2 µM),relative viability ([3]; first compound 0.6325 µM),relative viability ([3]; first compound 2 µM),relative viability ([3]; first compound 6.325 µM),relative viability (AZD6482 + Luminespib; first compound 0.08 µM),relative viability (AZD6482 + Luminespib; first compound 0.253 µM),relative viability (AZD6482 + Luminespib; first compound 0.8 µM),relative viability (AZD6482 + Luminespib; first compound 2.53 µM),relative viability (AZD6482 + Luminespib; first compound 8 µM)
LOU-NH91,0.75,0.761,0.625,0.74,0.93,0.978,0.669,0.979,0.643,0.803,0.506,0.674,0.326,0.293,0.343,0.27,0.335
NCI-H3122,0.935,0.877,0.992,0.729,1.01,1.01,1.03,1.06,0.403,0.363,0.401,0.331,0.094,0.0817,0.108,0.0814,0.0719
NCI-H460,0.669,0.674,0.565,0.63,0.73,0.792,0.762,0.267,0.501,0.492,0.478,0.484,0.0355,0.0327,0.0426,0.0315,0.0378
NCI-H650,0.532,0.483,0.508,0.329,0.866,0.77,0.943,0.534,0.454,0.459,0.466,0.427,0.657,–,0.898,0.647,0.509
NCI-H661,0.734,0.691,0.772,0.725,0.553,0.56,0.779,0.634,0.295,0.296,0.27,0.266,0.959,0.945,0.968,0.635,0.918
NCI-H1793,0.241,0.365,0.225,0.293,0.912,1.02,1.21,0.959,0.372,0.385,0.404,0.364,0.151,0.164,0.165,0.134,0.167
NCI-H1734,0.587,0.583,0.506,0.501,0.964,0.811,0.832,0.83,0.383,0.383,0.389,0.346,0.194,0.167,0.164,0.163,0.205
LXF-289,0.696,0.761,0.791,0.768,0.956,0.954,0.98,0.923,0.511,0.507,0.527,0.525,0.688,0.655,0.724,0.409,0.379
H3255,0.513,0.534,0.587,0.692,0.983,0.992,1.04,0.998,0.332,0.372,0.362,0.344,0.986,0.761,0.806,0.529,0.799
201T,0.706,0.811,0.73,0.601,1.06,1.03,1.04,1,0.464,0.414,0.462,0.442,0.995,0.982,1.01,0.847,1.02
NCI-H2126,0.769,0.794,0.693,0.662,0.69,0.707,0.724,0.708,0.493,0.601,0.538,0.472,0.933,0.836,0.841,0.373,0.68
HOP-62,0.812,0.845,0.826,0.819,0.878,0.992,1.03,0.7,0.684,0.629,0.721,0.641,0.889,1.01,1.11,0.793,1.04
CAL-12T,0.516,0.718,0.76,0.479,0.745,0.829,0.944,0.726,0.503,0.606,0.686,0.532,0.476,0.204,0.338,0.171,0.325
NCI-H520,0.315,0.269,0.212,0.234,1.13,0.931,1.1,0.747,0.558,0.7,0.499,0.252,0.208,0.281,0.199,0.206,0.211
NCI-H1755,0.791,0.663,0.671,0.518,0.974,0.982,0.946,0.932,0.604,0.628,0.58,0.574,0.24,0.488,0.411,0.322,0.218
NCI-H2023,0.363,0.508,0.364,0.126,0.767,0.643,0.7,0.405,0.424,0.414,0.498,0.272,0.603,0.574,0.795,0.518,0.324
NCI-H2009,0.681,0.531,0.784,0.29,1.24,1.16,1.24,1.24,0.471,0.447,0.56,0.385,1.04,1.11,1.08,0.771,0.963
